In US10092492B2, “Cosmetic composition comprising spiculisporic acid and at least one surfactant” (L'OREAL, priority 2013, dated 2018):
Values joined by “and” are separate entries in the source; they are usually repeats but may differ in a detail not shown here. Equal values may be shown once. “Also recorded” adds a separate entry of the source.

Experiments:
[1] = Example 2: aspect and pH of S-acid pre-solubilized with KOH (R1=2) in association with surfactants; format: physicochemical; conditions: for pH t0 RT / pH RT, 20 days after storage / pH T = 4° C., 20 days after storage: KOH R1=2
Description: Solutions, containing S-acid at 4% or 8% (neutralized with an amount of KOH calculated in order to obtain the di-potassium salt of S-acid, i.e., R1=2) and surfactants, were made.

[2] = cited from earlier work
[3] = Example 1: pH and aspect of S-acid solutions neutralized with NaOH (30%) or KOH (50%), stabilized at 4° C. and RT; format: physicochemical; set-up: key to aspect of the solution (precipitation mark): The marked solutions (*) correspond to precipitated solutions; conditions: for pH T4° C. 24 h / pH T4° C. 30 days / pH TRT 24 h / pH TRT 30 days / pH TRT t0: R1=2
Description: In order to neutralize spiculisporic acid (S-acid), two moles of base were used for one mole of S-acid, i.e., R1=2.
Increasing concentration ranges of S-acid from 1% to 10% were achieved, either with NaOH (solution at 30% m/m), or with KOH (solution at 50% m/m).
The solutions were made twice (A and B) in order to evaluate the reproducibility of the results. All the ranges of the neutralized solutions with both bases are limpid at t0 and the pH values obtained range from 5.19 to 6.79.
The marked solutions (*) correspond to precipitated solutions.

[4] = Example 2: pH and macroscopic observation of S-acid neutralized with NaOH (R1=1.1) with surfactants, stored at 4° C.; format: physicochemical; conditions: for Macroscopic observation after 12 days after storage: stored in the dark at 4° C., listed as S-acid alone
Protocol: Solutions, containing S-acid at 4% or 8% (neutralized with an amount of NaOH calculated in order to obtain R1=1.1) and surfactants, were made, as shown in the table below:
The solutions were prepared according to the following procedure:
S-acid aqueous solution is prepared. The base is added under stirring. The resulting mixture is stirred at 40° C. Then the surfactant is added under stirring. The solution is then stored in the dark at 4° C.

[5] = S-acid 4% MA, surfactant 4% where present
[6] = KOH solution at 50%, S-acid 1%, A and B
[7] = KOH solution at 50%, S-acid 2%, A and B
[8] = NaOH solution at 30%, S-acid 1%, A and B
[9] = NaOH solution at 30%, S-acid 2%, A and B

pH t0 RT ([1]; S-acid 4% MA, surfactant 4% active material where present): 5.97
pH RT, 20 days after storage [1, 5]: 6.02
pH T = 4° C., 20 days after storage [1, 5]: 6.01
result after 20 days of storage at 4° C. (in words) ([1]; S-acid 4%, KOH R1=2, surfactant 4% where present): precipitation
pH RT, 20 days after storage ([1]; S-acid 8% MA, no surfactant): 6.47
pH T = 4° C., 20 days after storage ([1]; S-acid 8% MA, no surfactant): 6.47
pH t0 RT ([1]; S-acid 8% MA, no surfactant): 6.43
result after 20 days of storage at 4° C. (in words) ([1]; S-acid 8%, KOH R1=2, no surfactant): precipitation
pH T4° C. 24 h [3, 6]: 6.09 and 5.26
pH T4° C. 30 days [3, 6]: 5.86 and 5.39
pH TRT 24 h [3, 6]: 6.03 and 5.28
pH TRT 30 days [3, 6]: 5.69 and 5.18
pH TRT t0 [3, 6]: 5.93 and 5.22
pH T4° C. 24 h [3, 7]: 5.48 and 5.61
pH T4° C. 30 days [3, 7]: 5.46 and 5.53
pH TRT 24 h [3, 7]: 5.67 and 5.59
pH TRT 30 days [3, 7]: 5.39 and 5.59
pH TRT t0 [3, 7]: 5.4 and 5.19
aspect of the solution (precipitation mark) ([3]; KOH, S-acid 2%, 4° C. 24 h): *
aspect of the solution (precipitation mark) ([3]; KOH, S-acid 2%, 4° C. 30 days): *
aspect of the solution (precipitation mark) ([3]; KOH, S-acid 2%, RT 24 h): *
aspect of the solution (precipitation mark) ([3]; KOH, S-acid 2%, RT 30 days): *
pH T4° C. 24 h [3, 8]: 5.78 and 5.49
pH T4° C. 30 days [3, 8]: 5.69 and 5.41
pH TRT 24 h [3, 8]: 5.78 and 5.49
pH TRT 30 days [3, 8]: 5.59 and 5.42
pH TRT t0 ([3]; NaOH solution at 30%, S-acid 1%, duplicate solutions A and B): 5.66 and 5.37
pH T4° C. 24 h [3, 9]: 5.7 and 5.78
pH T4° C. 30 days [3, 9]: 5.72 and 5.69
pH TRT 24 h [3, 9]: 5.7 and 5.74
pH TRT 30 days [3, 9]: 5.64 and 5.49
pH TRT t0 ([3]; NaOH solution at 30%, S-acid 2%, duplicate solutions A and B): 5.64 and 5.6
aspect of the solution (precipitation mark) ([3]; NaOH, S-acid 2%, 4° C. 24 h): *
aspect of the solution (precipitation mark) ([3]; NaOH, S-acid 2%, 4° C. 30 days): *
aspect of the solution (precipitation mark) ([3]; NaOH, S-acid 2%, RT 30 days): *
stability of the solutions after 30 days at 4° C. ([3]; from 2% of S-acid, both bases (NaOH, KOH)): crystallization
pH t0 RT ([4]; S-acid 4% MA, NaOH R1=1.1): 4.89
pH t0 RT ([4]; S-acid 8% MA, NaOH): 5.11
SMILES: CCCCCCCCCCC(C(=O)O)C1(C(=O)O)CCC(=O)O1 (centres unmarked) [S-acid, 4,5-dicarboxy-4-pentadecanolide]
solubility in water at a high temperature ([2]; high temperature): partly soluble
solubility in ethanol ([2]; room temperature): soluble
solubility in fats ([2]; room temperature): insoluble
solubility in water ([2]; room temperature): insoluble
Macroscopic observation after 12 days after storage ([4]; S-acid 4% MA, NaOH R1=1.1): precipitation; also recorded: precipitate
Macroscopic observation after 12 days after storage ([4]; S-acid 8% MA, NaOH): precipitation; also recorded: precipitate
